Earlier results on one substance are cited in patent EP0642530B1, “DERIVATIVES OF DOLASTATIN” (BASF Aktiengesellschaft, priority 1992, dated 1993).

The conditions of the series: background statement, no method given.

As for Dolastatin-10, the stability to acid result was “unstable to acid”.
